pIC50: −log10 of the molar value. Converted amounts (≈) assume the structure as drawn. Where two headings read alike, the source gives them in different places.
Legend:
[1] = K. C. Agrawal et al, Biochem. Pharmacol. 1974; cited from earlier work
[2] = test system: Mycobacterium avium Patient Strain (Birk); test: Minimum inhibiting concentration, M. avium Patient Strain (Birk); type: cell-based; conditions: for MIC: Mycobacterium avium, read-out: Minimum inhibiting concentration
Mycobacterium lufu = test: Minimum inhibiting concentration, M. lufu L 209; type: cell-based; conditions: for MIC: Mycobacterium lufu
[3] = test system: Mycobacterium tuberculosis H 37 RV; test: Minimum inhibiting concentration, M. tuberculosis H37RV; type: cell-based; conditions: M. tub. H37RV; for MIC: Mycobacterium tuberculosis
Method: The minimum inhibiting concentration of the commercially available and inventive substances given in Table 2 was determined according to the known standard process ("Methods for sensitivity testing of bacterial infectious germs", DIN 58940, part 5).
The determination was carried out on the following bacterial cultures:
2. Mycobacterium tuberculosis H 37 RV, FIB 2-85 JS
For culturing the bacterial cultures use was made of nutrient substrates according to Gottsacker and Lowenstein Jensen and culture media according to Lockemann or Dubos-Davis (cf. "Detection processes for mycobacteria from test material, III, culture medium formulations for culturing tuberculosis bacteria", 1978, Publisher: Deutsches Zentralkomitee zur Bekampfung der Tuberculose, Poppenhusenstrasse 14c, 2000 Hamburg 60).
In each case 5×10^-3 to 5×10^-5 mg, based on the wet weight, of the mycobacterial strains were incubated in 2 ml of culture fluid (Lockemann +0.5 wt/vol. % bovine serum albumen fraction 5) at 31° C. with a graded concentration of the particular inhibitor (dilution series). The culture tubes were read off after 8 to 15 days, as a function of the bacterial strain.
The MIC is the inhibitor concentration in μMol/l at which no propagation of the sewn cells is observed.

[4] = Mouse, cited from earlier work
[5] = test system: Mycobacterium avium SN 304; test: Minimum inhibiting concentration, M. avium SN 304; type: cell-based
[6] = test system: Indochina W-2 (parasitic malaria strain); test: Growth of malaria strain Indochina W-2; type: cell-based; conditions: for pIC50: read-out: I50; for IC90: read-out: I90
Description: (§1) Determination of the semimaximum inhibiting concentration (I50) of typical representatives of the inventive compounds for the growth of parasitic malaria strains:
(§2) The determination took place according to the standard process (cf. WHO determination process).
(§3) The process according to Example 35 was repeated with the difference that the semimaximum inhibiting concentration of combinations of the inventive compound PH 22 with (2), (3) inhibitors of dihydrofolic acid reductase, (4) inhibitors of folate synthase and dihydrofolic acid reductase and (5), (6) inhibitors of DNA-synthesis were determined.

in vivo = conditions: rat, sc
Method: The acute toxicity after a single administration of PH 22, pyridine-2-aldehyde-thiosemicarbazone (Py-2-TSC), as well as Conteben (thiacetazone, 4-acetylaminobenzaldehyde-thiosemicarbazone) was determined according to H. J. Hapke, Toxikologie fur Veterinarmediziner, F. Enke Verlag, Stuttgart 1975. The test animals used were Wistar rats and NMRI white mice.

[7] = test system: Sierra Leone D-6 (parasitic malaria strain); test: Growth of malaria strain Sierra Leone D-6; type: cell-based; conditions: for pIC50: read-out: I50; for IC90: read-out: I90
Description: as §1, §2, §3

[8] = test system: Mycobacterium smegmatis ATCC 607; test: Minimum inhibiting concentration, M. smegmatis ATCC 607; type: cell-based; conditions: for MIC: Mycolicibacterium smegmatis
[9] = test system: human mammary tumour cell line MDA-MB231; test: Inhibition of cellnumber increase; type: cell-based; conditions: MDA-MB-231, read-out: 50% Inhibition of cellnumber increase, I50
Method: (§4) The semimaximum inhibition of cellnumber increase and thymidine incorporation into DNA was determined on the […], human mammary tumour cell line MDA-MB231 (cf. H. D. Soule et al, J. Nat. Cancer Inst., 51, p.1409, 1973) according to the method described by H. Seidenberger, G. Kranzfelder, S. Wappes, H. Schonenberger, W. Beck and M. Girth, Arch. Pharm. 314, 955, 1981 and M. Lippman, M. E. Monaco and G. Bolan, Cancer Res. 37, 1901, 1977.

[10] = test system: Mycobacterium marinum SN 1254; test: Minimum inhibiting concentration, M. marinum SN1254; type: cell-based
[11] = test system: human mammary tumour cell line MDA-MB231; test: Inhibition of thymidine incorporation into DNA; type: cell-based; conditions: MDA-MB-231, read-out: 50% Inhibition of thymidine incorporation
Method: as §4

lymphatic leukaemia P388 = conditions: C. Pellerano et al, Il Farmaco 1985; cited from earlier work
[12] = read-out: IC50 in the case of combinations
[13] = ATCC607, M. smegm. ATCC 607, read-out: Minimum inhibiting concentration
[14] = M. marin. SN1254, read-out: Minimum inhibiting concentration

Row | SMILES | MIC ([2]; M. avium Patient str.) | MIC (Mycobacterium lufu) | MIC [3] | MIC [8, 13] | pIC50 [9] | MIC [10, 14] | pIC50 [11] | in vivo treatment of lymphatic leukaemia P388 (lymphatic leukaemia P388) | also measured
1 | NC(=S)NN=Cc1ccc(O)cn1 [5-hydroxypyridine-2-(carbox)-aldehyde-thiosemicarbazone] |  |  |  |  |  |  |  |  | gastrointestinal toxicity [1]: serious gastrointestinal toxicity
2 | CC(=O)Nc1ccc(C=NNC(N)=S)cc1 [Conteben, 4-acetylaminobenzaldehyde-thiosemicarbazone, reference compound] | 35 µM (≈ 8.27 µg/mL) | 339 µM (≈ 80.1 µg/mL) | 4 µM (≈ 0.945 µg/mL) |  |  |  |  |  | LD50 ([4]; p.o., Comptes Rendus Soc. Biol. 1310 (1950)): 950 mg/kg body weight; LD50 ([4]; subc., J. Pharm. Pharmacol. 2, 764 (1950)): 1000-2000 mg/kg body weight
3 | NC[C@H]1O[C@H](O[C@H]2[C@H](O)[C@@H](O[C@H]3O[C@H](CO)[C@@H](O)[C@H](N)[C@H]3O)[C@H](N)C[C@@H]2N)[C@H](O)[C@@H](O)[C@@H]1O [Kanamycin, reference compound] |  |  |  |  |  |  |  |  | MIC ([5]; SN304, read-out: Minimum inhibiting concentration): 33 µM (≈ 16 µg/mL); MIC [2]: 17 µM (≈ 8.24 µg/mL)
4 | C(=NNc1ccccn1)c1ccccn1 [PH 22, pyridine-2-aldehyde-2'-pyridylhydrazone] | 29 µM (≈ 5.75 µg/mL) | 32 µM (≈ 6.34 µg/mL) | 97 µM (≈ 19.2 µg/mL) | 20 µM (≈ 3.96 µg/mL) | 6.82 | 77 µM (≈ 15.3 µg/mL) | 6.93 |  | pIC50 [6]: 5.70; IC90 [6]: 2.5 µM; IC50 [6, 12]: 0.39 µg/mL; LD50 (in vivo): > 2000 mg/kg; pIC50 [7]: 6.52; IC90 [7]: 1300 nM; IC50 [7, 12]: 0.0556 µg/mL; MIC ([5]; SN304, M. avium SN 304, read-out: Minimum inhibiting concentration): 30 µM (≈ 5.95 µg/mL)
5 | CC(=NNc1ccccn1)c1ccccn1 [PH 22-2, 2-acetylpyridine-2'-pyridylhydrazone] | 132 µM (≈ 28 µg/mL) | 33 µM (≈ 7 µg/mL) | 48 µM (≈ 10.2 µg/mL) | 24 µM (≈ 5.09 µg/mL) |  | 28 µM (≈ 5.94 µg/mL) |  | ineffective | 
6 | CC(=NN(c1ccccn1)c1ccc2ccccc2n1)c1ccccn1 [PH 22-4, 2-acetylpyridine-2'-pyridyl-2'-quinolylhydrazone] |  |  |  |  |  |  |  | ineffective | Minimum inhibiting concentration ([8]; M. smegm. ATCC 607): 15 μM/1; Minimum inhibiting concentration ([2]; M. avium Patient str.): 58 μM/1; Minimum inhibiting concentration (Mycobacterium lufu): 6,7 μM/1; Minimum inhibiting concentration [3]: 4,8 μM/1
7 | Cc1ccnc(C=NNc2ccccn2)c1 [PH 22-7, 4-methyl-pyridine-2-aldehyde-2'-pyridylhydrazone] |  | 57 µM (≈ 12.1 µg/mL) | 113 µM (≈ 24 µg/mL) |  | 6.56 |  | 6.80 |  | MIC ([8]; ATCC607, read-out: Minimum inhibiting concentration): 113 µM (≈ 24 µg/mL); MIC ([10]; SN1254, read-out: Minimum inhibiting concentration): 113 µM (≈ 24 µg/mL)
8 | c1ccc(C(=NNc2ccccn2)c2ccccn2)cc1 [PH 22-9, 2-benzoyl pyridine-2'-pyridylhydrazone] | 73 µM (≈ 20 µg/mL) | 5.5 µM (≈ 1.51 µg/mL) | 13 µM (≈ 3.57 µg/mL) | 36.5 µM (≈ 10 µg/mL) | 7.01 | 18.3 µM (≈ 5.02 µg/mL) | 7.05 | ineffective | pIC50 [6]: 5.82; IC90 [6]: 5.3 µM; pIC50 [7]: 5.74; IC90 [7]: 2200 nM

Source: patent US4997835A, “Substituted 2-acylpyridine-α-(N)-hetarlyhydrazones and medicaments containing the same” (priority 1987, dated 1991)
